Patent publication US9617246B2, “Thioether-piperidinyl orexin receptor antagonists” (MERCK SHARP & DOHME CORP., priority 2013, dated 2017)

Tests used:
[1] = molecular target: human orexin-2 receptor (Homo sapiens (Human), UniProt O43614); test: FLIPR Ca2+ Flux Assay, orexin-2 receptor; assay type: cell-based; conditions: CHO cells, agonist 70 pM Ala-6,12 human orexin-A; read-out: hOX2R FLIPR IC50
Protocol: The utility of the compounds in accordance with the present invention as orexin receptor OX1R and/or OX2R antagonists may be readily determined without undue experimentation by methodology well known in the art, including the “FLIPR Ca^2+ Flux Assay” (Okumura et al., Biochem. Biophys. Res. Comm. 280:976-981, 2001). In a typical experiment the OX1 and OX2 receptor antagonistic activity of the compounds of the present invention was determined in accordance with the following experimental method. For intracellular calcium measurements, Chinese hamster ovary (CHO) cells expressing the rat orexin-1 receptor or the human orexin-2 receptor, are grown in Iscove's modified DMEM containing 2 mM L-glutamine, […], 1% hypoxanthine-thymidine supplement, 100 U/ml penicillin, 100 μg/ml streptomycin and 10% heat-inactivated fetal calf serum (FCS). The cells are seeded at 20,000 cells/well into Becton-Dickinson black 384-well clear bottom sterile plates coated with poly-D-lysine. All reagents were from GIBCO-Invitrogen Corp. The seeded plates are incubated overnight at 37° C. and 5% CO2. Ala-6,12 human orexin-A as the agonist is prepared as a 1 mM stock solution in 1% bovine serum albumin (BSA) and diluted in assay buffer (HBSS containing 20 mM HEPES, 0.1% BSA and 2.5 mM probenecid, pH7.4) for use in the assay at a final concentration of 70 pM. Test compounds are prepared as 10 mM stock solution in DMSO, then diluted in 384-well plates, first in DMSO, then assay buffer. On the day of the assay, cells are washed 3 times with 100 μl assay buffer and then incubated for 60 min (37° C., 5% CO2) in 60 μl assay buffer containing 1 μM Fluo-4AM ester, 0.02% pluronic acid, and 1% BSA. The dye loading solution is then aspirated and cells are washed 3 times with 100 μl assay buffer. 30 μl of that same buffer is left in each well. Within the Fluorescent Imaging Plate Reader (FLIPR, Molecular Devices), test compounds are added to the plate in a volume of 25 μl, incubated for 5 min and finally 25 μl of agonist is added. Fluorescence is measured for each well at 1 second intervals for 5 minutes and the height of each fluorescence peak is compared to the height of the fluorescence peak induced by 70 pM Ala-6,12 orexin-A with buffer in place of antagonist. For each antagonist, IC50 value (the concentration of compound needed to inhibit 50% of the agonist response) is determined. Alternatively, compound potency can be assessed by a radioligand binding assay (described in Bergman et. al. Bioorg. Med. Chem. Lett. 2008, 18, 1425-1430) in which the inhibition constant (Ki) is determined in membranes prepared from CHO cells expressing either the OX1 or OX2 receptor. The intrinsic orexin receptor antagonist activity of a compound which may be used in the present invention may be determined by these assays.

[2] = molecular target: hOX1R (Homo sapiens, UniProt O43613); test: FLIPR Ca2+ Flux Assay, orexin-1 receptor; assay type: cell-based; conditions: CHO cells, agonist 70 pM Ala-6,12 human orexin-A

Sequence of human orexin-2 receptor (O43614 whole entry): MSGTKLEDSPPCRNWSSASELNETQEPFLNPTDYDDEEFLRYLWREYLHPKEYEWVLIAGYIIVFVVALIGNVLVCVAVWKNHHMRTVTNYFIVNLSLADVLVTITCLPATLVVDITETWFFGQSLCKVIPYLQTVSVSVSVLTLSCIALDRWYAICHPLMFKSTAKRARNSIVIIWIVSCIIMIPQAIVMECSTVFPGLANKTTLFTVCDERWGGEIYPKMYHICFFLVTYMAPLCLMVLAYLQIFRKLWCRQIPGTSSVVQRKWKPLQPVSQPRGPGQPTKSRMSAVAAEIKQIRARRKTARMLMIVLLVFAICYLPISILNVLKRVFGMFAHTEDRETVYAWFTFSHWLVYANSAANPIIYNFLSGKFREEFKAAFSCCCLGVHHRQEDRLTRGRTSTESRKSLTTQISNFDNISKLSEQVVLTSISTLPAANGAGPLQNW

Structure (SMILES)	IC50 [1] [nM]	IC50 [2] [nM]
COc1cccc(-n2nccn2)c1C(=O)N1C[C@H](Sc2cc(C#N)ccn2)CC[C@H]1C [Example 17, 2-{[(3R,6R)-1-{[2-methoxy-6-(2H-1,2,3-triazol-2-yl)phenyl]carbonyl}-6-methylpiperidin-3-yl]sulfanyl}pyridine-4-carbonitrile]	51.2	5880
C[C@@H]1CC[C@@H](Sc2cc(C#N)ccn2)CN1C(=O)c1sccc1-c1ncccn1 [Example 42, 2-({(3R,6R)-6-methyl-1-[(3-pyrimidin-2-ylthiophen-2-yl)carbonyl]piperidin-3-yl}sulfanyl)pyridine-4-carbonitrile]	5.3	3560
COc1ccc(C(=O)N2C[C@H](Sc3cc(C#N)ccn3)CC[C@H]2C)c(-n2nccn2)n1 [Example 14, 2-{[(3R,6R)-1-{[6-Methoxy-2-(2H-1,2,3-triazol-2-yl)pyridin-3-yl]carbonyl}-6-methylpiperidin-3-yl]sulfanyl}pyridine-4-carbonitrile]	149	10000
C[C@@H]1CC[C@@H](Sc2cc(C#N)ccn2)CN1C(=O)c1ccccc1-c1cnn(C)c1 [Example 31, 2-{[(3R,6R)-6-methyl-1-{[2-(1-methyl-1H-pyrazol-4-yl)phenyl]carbonyl}piperidin-3-yl]sulfanyl}pyridine-4-carbonitrile]	30.3	3190
COC(=O)c1c(OC)ccnc1S[C@@H]1CC[C@@H](C)N(C(=O)c2ccccc2-n2nccn2)C1 [Example 49, Methyl 4-methoxy-2-{[(3R,6R)-6-methyl-1-{[2-(2H-1,2,3-triazol-2-yl)phenyl]carbonyl}piperidin-3-yl]sulfanyl}pyridine-3-carboxylate]	11.1	73.2
C[C@@H]1CC[C@@H](Sc2cc(C#N)ccn2)CN1C(=O)c1ccccc1C1CCCCO1 (stereo partly drawn) [Example 38, 2-{[(3R,6R)-6-methyl-1-{[2-(tetrahydro-2H-pyran-2-yl)phenyl]carbonyl}piperidin-3-yl]sulfanyl}pyridine-4-carbonitrile]	36.6	10000
C[C@@H]1CC[C@@H](Sc2cc(C#N)ccn2)CN1C(=O)c1cc(Br)ccc1-n1nccn1 [Example 24, 2-{[(3R,6R)-1-{[5-bromo-2-(2H-1,2,3-triazol-2-yl)phenyl]carbonyl}-6-methylpiperidin-3-yl]sulfanyl}pyridine-4-carbonitrile]	14.9	489
C[C@@H]1CC[C@@H](Sc2cc(C#N)ccn2)CN1C(=O)c1cccnc1-c1ccccc1 [Example 32, 2-({(3R,6R)-6-methyl-1-[(2-phenylpyridin-3-yl)carbonyl]piperidin-3-yl}sulfanyl)pyridine-4-carbonitrile]	71.9	10000
C[C@@H]1CC[C@@H](Sc2cc(C#N)ccn2)CN1C(=O)c1ccccc1-c1ccccc1 [Example 28, 2-{[(3R,6R)-1-(biphenyl-2-ylcarbonyl)-6-methylpiperidin-3-yl]sulfanyl}pyridine-4-carbonitrile]	16.7	279
CC(C)Oc1ccccc1C(=O)N1C[C@H](Sc2cc(C#N)ccn2)CC[C@H]1C [Example 33, 2-{[(3R,6R)-6-methyl-1-{[2-(1-methylethoxy)phenyl]carbonyl}piperidin-3-yl]sulfanyl}pyridine-4-carbonitrile]	29.4	6840
C[C@@H]1CC[C@@H](Sc2cc(C#N)ccn2)CN1C(=O)c1c(F)cccc1-n1nccn1 [Example 16, 2-{[(3R,6R)-1-{[2-fluoro-6-(2H-1,2,3-triazol-2-yl)phenyl]carbonyl}-6-methylpiperidin-3-yl]sulfanyl}pyridine-4-carbonitrile]	51.4	2350
COC(=O)c1ccnc(S[C@@H]2CC[C@@H](C)N(C(=O)c3ccccc3-n3nccn3)C2)c1 [Example 13, methyl 2-{[(3R,6R)-6-methyl-1-{[2-(2H-1,2,3-triazol-2-yl)phenyl]carbonyl}piperidin-3-yl]sulfanyl}pyridine-4-carboxylate]	297	6310
COC(=O)c1cccnc1S[C@@H]1CC[C@@H](C)N(C(=O)c2ccccc2-n2nccn2)C1 [Example 3, methyl 2-{[(3R,6R)-6-methyl-1-{[2-(2H-1,2,3-triazol-2-yl)phenyl]carbonyl}piperidin-3-yl]sulfanyl}pyridine-3-carboxylate]	23.9	48.1
C[C@@H]1CC[C@@H](Sc2cc(C#N)ccn2)CN1C(=O)c1ccc(F)cc1-n1nccn1 [Example 21, 2-{[(3R,6R)-1-{[4-fluoro-2-(2H-1,2,3-triazol-2-yl)phenyl]carbonyl}-6-methylpiperidin-3-yl]sulfanyl}pyridine-4-carbonitrile]	26.1	2720
COC(=O)c1c(C)ccnc1S[C@@H]1CC[C@@H](C)N(C(=O)c2ccccc2-n2nccn2)C1 [Example 1, Methyl 4-methyl-2-{[(3R,6R)-6-methyl-1-{[2-(2H-1,2,3-triazol-2-yl)phenyl]carbonyl}-piperidin-3-yl]sulfanyl}pyridine-3-carboxylate]	22.2	27.8
Cc1cccc(C(=O)N2C[C@H](Sc3cc(C#N)ccn3)CC[C@H]2C)c1-n1nccn1 [Example 18, 2-{[(3R,6R)-6-methyl-1-{[3-methyl-2-(2H-1,2,3-triazol-2-yl)phenyl]carbonyl}piperidin-3-yl]sulfanyl}pyridine-4-carbonitrile]	14.4	803
C[C@@H]1CC[C@@H](Sc2cc(C#N)ccn2)CN1C(=O)c1ccccc1-c1ncccn1 [Example 41, 2-({(3R,6R)-6-methyl-1-[(2-pyrimidin-2-ylphenyl)carbonyl]piperidin-3-yl}sulfanyl)pyridine-4-carbonitrile]	18.9	1580
COC(=O)c1c(I)ccnc1S[C@@H]1CC[C@@H](C)N(C(=O)c2ccccc2-n2nccn2)C1 [Example 4, methyl 4-iodo-2-{[(3R,6R)-6-methyl-1-{[2-(2H-1,2,3-triazol-2-yl)phenyl]carbonyl}piperidin-3-yl]sulfanyl}pyridine-3-carboxylate]	23.6	54.4
COc1ccc(C(=O)N2C[C@H](Sc3cc(C#N)ccn3)CC[C@H]2C)c(-n2nccn2)c1 [Example 23, 2-{[(3R,6R)-1-{[4-methoxy-2-(2H-1,2,3-triazol-2-yl)phenyl]carbonyl}-6-methylpiperidin-3-yl]sulfanyl}pyridine-4-carbonitrile]	224	7820
C[C@@H]1CC[C@@H](Sc2cc(C#N)ccn2)CN1C(=O)c1cc(Cl)ccc1-n1nccn1 [Example 25, 2-{[(3R,6R)-1-{[5-chloro-2-(2H-1,2,3-triazol-2-yl)phenyl]carbonyl}-6-methylpiperidin-3-yl]sulfanyl}pyridine-4-carbonitrile]	214	4860
C[C@@H]1CC[C@@H](Sc2ccccn2)CN1C(=O)c1ccccc1-n1nccn1 [Example 7, 2-{[(3R,6R)-6-methyl-1-{[2-(2H-1,2,3-triazol-2-yl)phenyl]carbonyl}piperidin-3-yl]sulfanyl}pyridine]	179	1630
C[C@@H]1CC[C@@H](Sc2cc(C#N)ccn2)CN1C(=O)c1ccccc1Oc1ccccc1 [Example 29, 2-({(3R,6R)-6-methyl-1-[(2-phenoxyphenyl)carbonyl]piperidin-3-yl}sulfanyl)pyridine-4-carbonitrile]	62.7	10000
